Laboratory results: US20210355104A1, “ADENOSINE RECEPTOR BINDING COMPOUNDS” (Nikang Therapeuticsm Inc., priority 2018, published 2021)
Several values for one entry are separate records, joined by “and”; a condition that tells them apart may be missing. Identical values can stand only once.

Key:
Adenosine A2A receptor [1] = target: T1, Adenosine A2A receptor (Homo sapiens, UniProt P29274); experiment: cAMP assay in 293A cells stably expressing the adenosine A2A receptor (CGS21680 stimulation, HTRF); format: cell-based; design: expressed in transfected cells; host or cells: 293A cells (Invitrogen, Cat# R705-07) infected with A2A-expressing lentivirus (custom packaged by Biosettia), puromycin selected; settings: 293A-A2AR cells, 0.1% BSA, values separated by / are repeat determinations
Adenosine A2A receptor [2] = target: T1, Adenosine A2A receptor; experiment: Adenosine A2A receptor competitive binding assay (Tag-lite HTRF); settings: Tag-lite adenosine A2A receptor ligand binding, 2 h room temperature; values separated by / are repeat determinations
Method in brief: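 Tag-lite HTRF competition: donor-labelled cells expressing human A2A were mixed with serially diluted compounds (DMSO 0.6% in dilutions) and red fluorescent A2A antagonist ligand (60 nM stock). Incubated 2 h at room temperature before HTRF readout.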

[3] = 8 nM CGS, read-out: cAMP (nM) 0.1% BSA, 8 nM CGS
[4] = 1 uM CGS, read-out: cAMP (nM) 0.1% BSA, 1 uM CGS

T1 sequence (P29274 whole entry): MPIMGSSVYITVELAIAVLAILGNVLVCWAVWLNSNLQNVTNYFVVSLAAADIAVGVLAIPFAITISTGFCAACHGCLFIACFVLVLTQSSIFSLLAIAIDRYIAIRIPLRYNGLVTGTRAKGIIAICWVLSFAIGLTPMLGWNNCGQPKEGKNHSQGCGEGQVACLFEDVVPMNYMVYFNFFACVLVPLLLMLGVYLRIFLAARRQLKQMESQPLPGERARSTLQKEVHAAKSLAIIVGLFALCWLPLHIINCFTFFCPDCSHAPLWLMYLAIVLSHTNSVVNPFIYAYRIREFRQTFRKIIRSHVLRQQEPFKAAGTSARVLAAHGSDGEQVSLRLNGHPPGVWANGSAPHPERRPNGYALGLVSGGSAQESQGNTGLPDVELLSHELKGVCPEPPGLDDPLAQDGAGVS

Row | SMILES | IC50 (Adenosine A2A receptor [1]; [3]) | IC50 (Adenosine A2A receptor [2]) | IC50 (Adenosine A2A receptor [1]; [4])
1 | CCN(CC)C(=O)[C@H](C)Oc1nc(N)nc(-c2ccccc2)c1-c1cc(C)nc(C(F)(F)F)c1 [Example 14, (S)-2-((2-amino-5-(2-methyl-6-(trifluoromethyl)pyridin-4-yl)-6-phenylpyrimidin-4-yl)oxy)-N,N-diethylpropanamide] | 10000 nM | 900 nM | –
2 | CCN(CC)C(=O)COc1nc(N)nc(-c2ccccc2)c1-c1cc(C)nc(C(F)F)c1 [Example 15, 2-((2-amino-5-(2-(difluoromethyl)-6-methylpyridin-4-yl)-6-phenylpyrimidin-4-yl)oxy)-N,N-diethylacetamide] | 0.5 nM and 2.1 nM | 3.2 nM | –
3 | CCN(CC)C(=O)COc1nc(N)nc(-c2ccccc2)c1-c1cc(C)nc(C(C)(F)F)c1 [Example 16, 2-((2-amino-5-(2-(1,1-difluoroethyl)-6-methylpyridin-4-yl)-6-phenylpyrimidin-4-yl)oxy)-N,N-diethylacetamide] | 6.5 nM | 1.47 nM | –
4 | CCN(CC)C(=O)COc1nc(N)nc(-c2ccccc2)c1-c1cc(C)nc(C(F)(F)CC)c1 [Example 17, 2-((2-amino-5-(2-(1,1-difluoropropyl)-6-methylpyridin-4-yl)-6-phenylpyrimidin-4-yl)oxy)-N,N-diethylacetamide] | 7.5 nM | 9.01 nM | –
5 | CCN(CC)C(=O)COc1nc(N)nc(-c2ccc(F)cc2)c1-c1cc(C)nc(C(F)F)c1 [Example 28, 2-([2-amino-5-[2-(difluoromethyl)-6-methylpyridin-4-yl]-6-(4-fluorophenyl)pyrimidin-4-yl]oxy)-N,N-diethylacetamide] | 0.44 nM and 1.3 nM | 7.56 nM | –
6 | CCNC(=O)COc1nc(N)nc(-c2ccccc2)c1-c1cc(C)nc(C(F)(F)F)c1 [Example 29, 2-([2-amino-5-[2-methyl-6-(trifluoromethyl)pyridin-4-yl]-6-phenylpyrimidin-4-yl]oxy)-N-ethylacetamide] | 2 nM and 2.7 nM | 7.74 nM | –
7 | CNC(=O)COc1nc(N)nc(-c2ccc(F)cc2)c1-c1cc(C)nc(C(F)F)c1 [Example 32, 2-((2-amino-5-(2-(difluoromethyl)-6-methylpyridin-4-yl)-6-(4-fluorophenyl)pyrimidin-4-yl)oxy)-N-methylacetamide] | 6.1 nM and 6.7 nM | 13.9 nM | –
8 | CCNC(=O)COc1nc(N)nc(-c2ccc(F)cc2)c1-c1cc(C)nc(C(F)F)c1 [Example 39, 2-((2-amino-5-(2-(difluoromethyl)-6-methylpyridin-4-yl)-6-(4-fluorophenyl)pyrimidin-4-yl)oxy)-N-ethylacetamide] | 0.42 nM and 0.57 nM and 2.2 nM | 7.2 nM and 6.4 nM | –
9 | Cc1cc(-c2c(OCC(=O)NC(C)C)nc(N)nc2-c2ccc(F)cc2)cc(C(F)F)n1 [Example 41, 2-((2-amino-5-(2-(difluoromethyl)-6-methylpyridin-4-yl)-6-(4-fluorophenyl)pyrimidin-4-yl)oxy)-N-isopropylacetamide] | 4.1 nM | 6.7 nM | –
10 | COCCNC(=O)COc1nc(N)nc(-c2ccc(F)cc2)c1-c1cc(C)nc(C(F)F)c1 [Example 45, 2-((2-amino-5-(2-(difluoromethyl)-6-methylpyridin-4-yl)-6-(4-fluorophenyl)pyrimidin-4-yl)oxy)-N-(2-methoxyethyl)acetamide] | 66 nM and 8.9 nM | 25.7 nM | –
11 | Cc1cc(-c2c(OCCCS(C)(=O)=O)nc(N)nc2-c2ccc(F)cc2)cc(C(F)F)n1 [Example 46, 5-(2-(difluoromethyl)-6-methylpyridin-4-yl)-4-(4-fluorophenyl)-6-(3-(methylsulfonyl)propoxy)pyrimidin-2-amine] | 0.45 nM and 0.84 nM and 2.1 nM | 5.7 nM and 5.9 nM | 1780 nM and 714 nM
12 | COCCOc1nc(N)nc(-c2ccc(F)cc2)c1-c1cc(C)nc(C(F)F)c1 [Example 48, 5-(2-(difluoromethyl)-6-methylpyridin-4-yl)-4-(4-fluorophenyl)-6-(2-methoxyethoxy)pyrimidin-2-amine] | 0.72 nM and 0.18 nM | 3.7 nM | –
13 | COC(=O)N1CCN(CCOc2nc(N)nc(-c3ccc(F)cc3)c2-c2cc(C)nc(C(F)F)c2)CC1 [Example 51, methyl 4-(2-((2-amino-5-(2-(difluoromethyl)-6-methylpyridin-4-yl)-6-(4-fluorophenyl)pyrimidin-4-yl)oxy)ethyl)piperazine-1-carboxylate] | 3.9 nM | 10 nM | –
14 | Cc1cc(-c2c(OCCN3CCN(C4COC4)CC3)nc(N)nc2-c2ccc(F)cc2)cc(C(F)F)n1 [Example 52, 5-(2-(difluoromethyl)-6-methylpyridin-4-yl)-4-(4-fluorophenyl)-6-(2-(4-(oxetan-3-yl)piperazin-1-yl)ethoxy)pyrimidin-2-amine] | 532 nM | 120 nM | –

Results, then the molecule that gave them:

Row | IC50 (Adenosine A2A receptor [1]; [3]) | IC50 (Adenosine A2A receptor [2]) | IC50 (Adenosine A2A receptor [1]; [4]) | SMILES
15 | 0.67 nM | 13 nM | – | COCCOc1ccc(N2CCN(CCOc3nc(N)nc(-c4ccc(F)cc4)c3-c3cc(C)nc(C(F)F)c3)CC2)cc1 [Example 53, 5-(2-Difluoromethyl-6-methyl-pyridin-4-yl)-4-(4-fluoro-phenyl)-6-(2-{4-[4-(2-methoxy-ethoxy)-phenyl]-piperazin-1-yl}-ethoxy)-pyrimidin-2-ylamine]
16 | 0.22 nM and 1.45 nM | 2.1 nM and 10 nM | – | CCOC(=O)NCCOc1nc(N)nc(-c2ccc(F)cc2)c1-c1cc(C)nc(C(F)F)c1 [Example 54, ethyl(2-((2-amino-5-(2-(difluoromethyl)-6-methylpyridin-4-yl)-6-(4-fluorophenyl)pyrimidin-4-yl)oxy)ethyl)carbamate]
17 | 3.6 nM | 8.9 nM | – | Cc1cc(-c2c(OCCN3CCN(c4ccc(S(C)(=O)=O)cc4)CC3)nc(N)nc2-c2ccc(F)cc2)cc(C(F)F)n1 [Example 56, 5-(2-(difluoromethyl)-6-methylpyridin-4-yl)-4-(4-fluorophenyl)-6-(2-(4-(4-(methylsulfonyl)phenyl)piperazin-1-yl)ethoxy)pyrimidin-2-amine]
18 | 1.7 nM | 2 nM and 14 nM | – | Cc1cc(-c2c(OCCc3ccc(N4CCN(C)CC4)cc3)nc(N)nc2-c2ccc(F)cc2)cc(C(F)F)n1 [Example 57, 5-(2-(difluoromethyl)-6-methylpyridin-4-yl)-4-(4-fluorophenyl)-6-(4-(4-methylpiperazin-1-yl)phenethoxy)pyrimidin-2-amine]
19 | 2.2 nM and 1.3 nM | 1.8 nM and 7.8 nM | 663 nM and 394 nM | Cc1cc(-c2c(OCCNS(N)(=O)=O)nc(N)nc2-c2ccc(F)cc2)cc(C(F)F)n1 [Example 59]
20 | 1.7 nM and 2.2 nM | 3.6 nM and 8.8 nM | – | CCNC(=O)NCCOc1nc(N)nc(-c2ccc(F)cc2)c1-c1cc(C)nc(C(F)F)c1 [Example 60, 1-(2-((2-amino-5-(2-(difluoromethyl)-6-methylpyridin-4-yl)-6-(4-fluorophenyl)pyrimidin-4-yl)oxy)ethyl)-3-ethylurea]
21 | 233 nM | 280 nM | – | Cc1cc(-c2c(OCC(C)(C)C(=O)O)nc(N)nc2-c2ccc(F)cc2)cc(C(F)F)n1 [Example 61, 3-((2-amino-5-(2-(difluoromethyl)-6-methylpyridin-4-yl)-6-(4-fluorophenyl)pyrimidin-4-yl)oxy)-2,2-dimethylpropanoic acid]
22 | 15 nM | 15 nM | – | Cc1cc(-c2c(OCC(C)(C)O)nc(N)nc2-c2ccc(F)cc2)cc(C(F)F)n1 [Example 62, 1-((2-amino-5-(2-(difluoromethyl)-6-methylpyridin-4-yl)-6-(4-fluorophenyl)pyrimidin-4-yl)oxy)-2-methylpropan-2-ol]
23 | 8.3 nM | 37 nM | – | CCOC(=O)NCc1nc(N)nc(-c2ccccc2)c1-c1cc(C)nc(C(F)(F)F)c1 [Example 63, Ethyl((2-amino-5-(2-methyl-6-(trifluoromethyl)pyridin-4-yl)-6-phenylpyrimidin-4-yl)methyl)carbamate]
24 | 1.6 nM | 42 nM | 1010 nM | CCNCCOc1nc(N)nc(-c2ccc(F)cc2)c1-c1cc(C)nc(C(F)F)c1 [Example 65, 5-(2-(difluoromethyl)-6-methylpyridin-4-yl)-4-(2-(ethylamino)ethoxy)-6-(4-fluorophenyl)pyrimidin-2-amine]
25 | 337 nM | 95 nM | – | Cc1cc(-c2c(OCCc3ccc(OC4CCN(S(C)(=O)=O)C4)cc3)nc(N)nc2-c2ccc(F)cc2)cc(C(F)F)n1 (centres unmarked) [Example 66, 5-(2-(difluoromethyl)-6-methylpyridin-4-yl)-4-(4-fluorophenyl)-6-(4-((1-(methylsulfonyl)pyrrolidin-3-yl)oxy)phenethoxy)pyrimidin-2-amine]
26 | 4.7 nM | 27 nM | – | CCNC(=O)Nc1ccc(CCOc2nc(N)nc(-c3ccc(F)cc3)c2-c2cc(C)nc(C(F)F)c2)cc1 [Example 67, 1-(4-(2-((2-amino-5-(2-(difluoromethyl)-6-methylpyridin-4-yl)-6-(4-fluorophenyl)pyrimidin-4-yl)oxy)ethyl)phenyl)-3-ethylurea]
27 | 2.7 nM | 22 nM | – | Cc1cc(-c2c(OCCc3ccc(C(C)(C)O)cc3)nc(N)nc2-c2ccc(F)cc2)cc(C(F)F)n1 [Example 68, 2-(4-(2-((2-amino-5-(2-(difluoromethyl)-6-methylpyridin-4-yl)-6-(4-fluorophenyl)pyrimidin-4-yl)oxy)ethyl)phenyl)propan-2-ol]
28 | 5.8 nM | 38 nM | – | Cc1cc(-c2c(OCCc3ccc(NS(C)(=O)=O)cc3)nc(N)nc2-c2ccc(F)cc2)cc(C(F)F)n1 [Example 69, N-(4-(2-((2-amino-5-(2-(difluoromethyl)-6-methylpyridin-4-yl)-6-(4-fluorophenyl)pyrimidin-4-yl)oxy)ethyl)phenyl)methanesulfonamide]
